Target: T1, CCR2 (Homo sapiens, UniProt P41597)
T1 construct: host or cells: THP-1 (human monocytic cell line)
Experiment: MCP-1 Receptor Binding Assay in THP-1 Cells
Details: read-out: MCP1B_v3 IC50
Experimental: Compounds of the invention were subjected to various representative biological tests. […] MCP-1 Receptor Binding Assay in THP-1 Cells Human monocytic cell line THP-1 cells were obtained from American Type Culture Collection (Manassas, Va., USA). The THP-1 cells were grown in RPMI-1640 (RPMI: Roswell Park Memorial Institute Medium-cell culture growth media) supplemented with 10% fetal bovine serum in a humidified 5% CO2 atmosphere at 37° C. The cell density was maintained between […].
THP-1 (cells were incubated with 0.5 nM ^125I labeled MCP-1 (Perkin-Elmer Life Sciences, Inc. Boston, Mass.) in the presence of varying concentrations of either unlabeled MCP-1 (R & D Systems, Minneapolis, Minn.) or test compound for 2 hours at 30° C. in a 96 well plate. Cells were then harvested onto a filter plate, dried, and 20 μL of Microscint 20 was added to each well. Plates were counted in a TopCount NXT, Microplate Scintillation & Luminescence Counter (Perkin-Elmer Life Sciences, Inc. Boston, Mass.). Blank values (buffer only) were subtracted from all values and drug treated values were compared to vehicle treated values. 1 μM cold MCP-1 was used for nonspecific binding.

T1 sequence (P41597 whole entry): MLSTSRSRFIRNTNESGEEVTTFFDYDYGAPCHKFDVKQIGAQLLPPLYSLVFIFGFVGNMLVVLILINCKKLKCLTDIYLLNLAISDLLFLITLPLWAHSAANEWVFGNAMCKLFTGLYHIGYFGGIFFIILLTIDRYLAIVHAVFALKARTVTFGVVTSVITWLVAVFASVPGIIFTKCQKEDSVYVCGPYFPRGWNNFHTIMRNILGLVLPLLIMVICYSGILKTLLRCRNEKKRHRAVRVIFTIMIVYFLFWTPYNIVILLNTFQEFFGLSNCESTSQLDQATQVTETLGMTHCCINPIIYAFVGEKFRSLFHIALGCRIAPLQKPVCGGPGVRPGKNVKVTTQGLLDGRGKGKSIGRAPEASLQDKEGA

SMILES	IC50
COCCOC(=O)N1C[C@@H]2C[C@@H](NC3CCOCC3OC)C[C@]2(C(=O)N2CCc3ncc(C(F)(F)F)cc3C2)C1 (relative stereo) [Example 48, (3aR,5R,6aR)-2-Methoxyethyl 5-(((3S*,4S*)-3-methoxytetrahydro-2H-pyran-4-yl)amino)-3a-(3-(trifluoromethyl)-5,6,7,8-tetrahydro-1,6-naphthyridine-6-carbonyl)hexahydrocyclopenta[c]pyrrole-2(1H)-carboxylate]	0.08 µM
COC1COCCC1N[C@@H]1C[C@H]2CN(C(=O)OCCC(F)(F)F)C[C@@]2(C(=O)N2CCc3ncc(C(F)(F)F)cc3C2)C1 (relative stereo) [Example 51, (3aR,5R,6aR)-3,3,3-Trifluoropropyl 5-(((3S*,4S*)-3-methoxytetrahydro-2H-pyran-4-yl)amino)-3a-(3-(trifluoromethyl)-5,6,7,8-tetrahydro-1,6-naphthyridine-6-carbonyl)hexahydrocyclo-penta[c]pyrrole-2(1H)-carboxylate]	0.14 µM
COC1COCCC1N[C@@H]1C[C@H]2CN(C(=O)OCCC#N)C[C@@]2(C(=O)N2CCc3ncc(C(F)(F)F)cc3C2)C1 (relative stereo) [Example 52, (3aR,5R,6aR)-2-Cyanoethyl 5-(((3S*,4S*)-3-methoxytetrahydro-2H-pyran-4-yl)amino)-3a-(3-(trifluoromethyl)-5,6,7,8-tetrahydro-1,6-naphthyridine-6-carbonyl)hexahydrocyclopenta[c]pyrrole-2(1H)-carboxylate]	0.13 µM
C#CCOC(=O)N1C[C@@H]2C[C@@H](NC3CCOCC3OC)C[C@]2(C(=O)N2CCc3ncc(C(F)(F)F)cc3C2)C1 (relative stereo) [Example 53, (3aR,5R,6aR)-Prop-2-yn-1-yl 5-(((3S*,4S*)-3-methoxytetrahydro-2H-pyran-4-yl)amino)-3a-(3-(trifluoromethyl)-5,6,7,8-tetrahydro-1,6-naphthyridine-6-carbonyl)hexahydrocyclopenta[c]pyrrole-2(1H)-carboxylate]	0.2 µM
COC1COCCC1N[C@@H]1C[C@H]2CN(C(=O)OCCN(C)C)C[C@@]2(C(=O)N2CCc3ncc(C(F)(F)F)cc3C2)C1 (relative stereo) [Example 54, (3aR,5R,6aR)-2-(Dimethylamino)ethyl 5-(((3S*,4S*)-3-methoxytetrahydro-2H-pyran-4-yl)amino)-3a-(3-(trifluoromethyl)-5,6,7,8-tetrahydro-1,6-naphthyridine-6-carbonyl)-hexahydrocyclopenta[c]pyrrole-2(1H)-carboxylate]	0.15 µM
COC1COCCC1N[C@@H]1C[C@H]2CN(C(=O)OCc3ccccc3)C[C@@]2(C(=O)N2CCc3ncc(C(F)(F)F)cc3C2)C1 (relative stereo) [Example 56, (3aR,5R,6aR)-Benzyl 5-(((3S*,4S*)-3-methoxytetrahydro-2H-pyran-4-yl)amino)-3a-(3-(trifluoromethyl)-5,6,7,8-tetrahydro-1,6-naphthyridine-6-carbonyl)hexahydrocyclopenta[c]pyrrole-2(1H)-carboxylate]	0.12 µM
CNC(=S)N(C1CCOCC1OC)[C@@H]1C[C@H]2CN(C(=O)OCc3ccccc3)C[C@@]2(C(=O)N2CCc3ncc(C(F)(F)F)cc3C2)C1 (relative stereo) [Example 57, (3aR,5R,6aR)-Benzyl 5-(1-((3S*,4S*)-3-methoxytetrahydro-2H-pyran-4-yl)-3-methylthioureido)-3a-(3-(trifluoromethyl)-5,6,7,8-tetrahydro-1,6-naphthyridine-6-carbonyl)hexahydrocyclopenta[c]pyrrole-2(1H)-carboxylate]	2.03 µM
COC1COCCC1N[C@@H]1C[C@H]2CN(C(=O)OCc3ccc(C#N)cc3)C[C@@]2(C(=O)N2CCc3ncc(C(F)(F)F)cc3C2)C1 (relative stereo) [Example 58, (3aR,5R,6aR)-4-Cyanobenzyl 5-(((3S*,4S*)-3-methoxytetrahydro-2H-pyran-4-yl)amino)-3a-(3-(trifluoromethyl)-5,6,7,8-tetrahydro-1,6-naphthyridine-6-carbonyl)hexahydrocyclopenta-[c]pyrrole-2(1H)-carboxylate]	0.2 µM
COc1cccc(COC(=O)N2C[C@@H]3C[C@@H](NC4CCOCC4OC)C[C@]3(C(=O)N3CCc4ncc(C(F)(F)F)cc4C3)C2)c1 (relative stereo) [Example 60, (3aR,5R,6aR)-3-Methoxybenzyl 5-(((3S*,4S*)-3-methoxytetrahydro-2H-pyran-4-yl)amino)-3a-(3-(trifluoromethyl)-5,6,7,8-tetrahydro-1,6-naphthyridine-6-carbonyl)hexahydrocyclopenta-[c]pyrrole-2(1H)-carboxylate]	0.1 µM
COc1ccc(COC(=O)N2C[C@@H]3C[C@@H](NC4CCOCC4OC)C[C@]3(C(=O)N3CCc4ncc(C(F)(F)F)cc4C3)C2)cc1 (relative stereo) [Example 61, (3aR,5R,6aR)-4-Methoxybenzyl 5-(((3S*,4S*)-3-methoxytetrahydro-2H-pyran-4-yl)amino)-3a-(3-(trifluoromethyl)-5,6,7,8-tetrahydro-1,6-naphthyridine-6-carbonyl)hexahydrocyclopenta-[c]pyrrole-2(1H)-carboxylate]	0.39 µM
COC1COCCC1N[C@@H]1C[C@H]2CN(C(=O)OCCC(C)(C)O)C[C@@]2(C(=O)N2CCc3ncc(C(F)(F)F)cc3C2)C1 (relative stereo) [Example 62, (3aR,5R,6aR)-3-Hydroxy-3-methylbutyl 5-(((3S*,4S*)-3-methoxytetrahydro-2H-pyran-4-yl)amino)-3a-(3-(trifluoromethyl)-5,6,7,8-tetrahydro-1,6-naphthyridine-6-carbonyl)-hexahydrocyclopenta[c]pyrrole-2(1H)-carboxylate]	0.06 µM
COC1COCCC1N[C@@H]1C[C@H]2CN(C(C)=O)C[C@@]2(C(=O)N2CCc3ncc(C(F)(F)F)cc3C2)C1 (relative stereo) [Example 66, 1-((3aR,5R,6aR)-5-(((3S*,4S*)-3-Methoxytetrahydro-2H-pyran-4-yl)amino)-3a-(3-(trifluoromethyl)-5,6,7,8-tetrahydro-1,6-naphthyridine-6-carbonyl)hexahydrocyclopenta-[c]pyrrol-2(1H)-yl)ethanone]	0.4 µM

Molecules with a lower IC50, results first:

IC50	SMILES
0.05 µM	COC1COCCC1N[C@@H]1C[C@H]2CN(C(=O)OCCNC(C)=O)C[C@@]2(C(=O)N2CCc3ncc(C(F)(F)F)cc3C2)C1 (relative stereo) [Example 63, (3aR,5R,6aR)-2-Acetamidoethyl 5-(((3S*,4S*)-3-methoxytetrahydro-2H-pyran-4-yl)amino)-3a-(3-(trifluoromethyl)-5,6,7,8-tetrahydro-1,6-naphthyridine-6-carbonyl)hexahydrocyclopenta[c]pyrrole-2(1H)-carboxylate]
0.04 µM	COC1COCCC1N[C@@H]1C[C@H]2CN(C(=O)OCC(C)C)C[C@@]2(C(=O)N2CCc3ncc(C(F)(F)F)cc3C2)C1 (relative stereo) [Example 64, (3aR,5R,6aR)-Isobutyl 5-(((3S*,4S*)-3-methoxytetrahydro-2H-pyran-4-yl)amino)-3a-(3-(trifluoromethyl)-5,6,7,8-tetrahydro-1,6-naphthyridine-6-carbonyl)hexahydro-cyclopenta[c]pyrrole-2(1H)-carboxylate]
0.03 µM	COC1COCCC1N[C@@H]1C[C@H]2CN(C(=O)OCC3CCOCC3)C[C@@]2(C(=O)N2CCc3ncc(C(F)(F)F)cc3C2)C1 (relative stereo) [Example 47, (3aR,5R,6aR)-(Tetrahydro-2H-pyran-4-yl)methyl 5-(((3S*,4S*)-3-methoxytetrahydro-2H-pyran-4-yl)amino)-3a-(3-(trifluoromethyl)-5,6,7,8-tetrahydro-1,6-naphthyridine-6-carbonyl)hexahydrocyclopenta[c]pyrrole-2(1H)-carboxylate]
0.03 µM	COC1COCCC1N[C@@H]1C[C@H]2CN(C(=O)OCCC(C)(C)O)C[C@@]2(C(=O)N2CCc3ccc(OC(F)(F)F)cc3C2)C1 (relative stereo) [Example 50, (3aR,5R,6aR)-3-Hydroxy-3-methylbutyl 5-(((3S*,4S*)-3-methoxytetrahydro-2H-pyran-4-yl)amino)-3a-(7-(trifluoromethoxy)-1,2,3,4-tetrahydroisoquinoline-2-carbonyl)hexahydrocyclopenta[c]pyrrole-2(1H)-carboxylate]
0.01 µM	COCCOC(=O)N1C[C@@H]2C[C@@H](NC3CCOCC3OC)C[C@]2(C(=O)N2CCc3ccc(C(F)(F)F)cc3C2)C1 (relative stereo) [Example 49, (3aR,5R,6aR)-2-Methoxyethyl 5-(((3S*,4S*)-3-methoxytetrahydro-2H-pyran-4-yl)amino)-3a-(7-(trifluoromethyl)-1,2,3,4-tetrahydroisoquinoline-2-carbonyl)hexahydrocyclopenta[c]pyrrole-2(1H)-carboxylate]
0.01 µM	COC1COCCC1N[C@@H]1C[C@H]2CN(C(=O)OCCNC(C)=O)C[C@@]2(C(=O)N2CCc3ccc(C(F)(F)F)cc3C2)C1 (relative stereo) [Example 55, (3aR,5R,6aR)-2-Acetamidoethyl 5-(((3S*,4S*)-3-methoxytetrahydro-2H-pyran-4-yl)amino)-3a-(7-(trifluoromethyl)-1,2,3,4-tetrahydroisoquinoline-2-carbonyl)hexahydrocyclopenta[c]pyrrole-2(1H)-carboxylate]
